Measurements from patent US20250032527A1, “MEDICAL USE OF N4-HYDROXY CITICOLINE COMPOUNDS” (IMMUNIC AG, priority 2021, published 2025).
pEC50: −log10 of the molar value.

What was measured:
[1] = physchem; settings: pH 7.4
[2] = test system: RSV A2; assay: RSV virus titers by endpoint titration (CCID50), mono and combination; type: cell-based; settings: for RSV Virus Titers: MA-104 cells, virus control 4.0
[3] = in vitro; settings: African green monkey, MA-104 cells
[4] = test system: HRV-14; assay: HRV-14 virus titers by endpoint titration (CCID50), mono and combination; type: cell-based; settings: for HRV-14 Virus Titers: Hela cells, virus control 6.7
[5] = test system: SARS-COV-2 d6-YFP; assay: Combinatorial drug assessment by viral replication inhibition assay (CompuSyn); type: cell-based
[6] = in vitro; settings: dog, MDCK cells
[7] = test system: Caco-2; assay: A-B permeability (Caco-2, pH 6.5/7.4); settings: low solubility, high permeability
[8] = A-B permeability (Caco-2, pH 6.5/7.4); settings: human, A-B, Caco-2, pH 6.5/7.4, test conc. 1.0E−05M
[9] = test system: influenza A (H1N1, California/07/2009); assay: microbe, parasite or virus in culture; settings: H1N1, MDCK
[10] = test system: respiratory syncytial virus (RSV) A2; assay: microbe, parasite or virus in culture; settings: human respiratory syncytial virus, MA104
[11] = in vitro; settings: human
[12] = physchem; settings: simulated gastric fluid
[13] = test system: SARS-COV-2; assay: microbe, parasite or virus in culture; type: cell-based; settings: Severe acute respiratory syndrome coronavirus 2
[14] = physchem; settings: pH 7.4, aqueous buffer, kinetic from dmso stock
[15] = B-A permeability (Caco-2, pH 6.5/7.4); settings: human, test conc. 1.0E−05M
[16] = in vitro; settings: human, HeLa cells
[17] = test system: human rhinovirus 14 (HRV-14); assay: microbe, parasite or virus in culture; settings: Rhinovirus B, HRV14, HeLa
[18] = physchem; settings: fassgf or other biorelevant, kinetic from dmso stock
[19] = Example 1 combined with a DHODH inhibitor
[20] = Caco-2, pH 6.5, Percent Recovery 1st
[21] = Caco-2, pH 6.5, Percent Recovery 2nd
[22] = Caco-2, pH 6.5, Percent Recovery Mean
[23] = Caco-2, pH 6.5, Permeability 1st
[24] = Caco-2, pH 6.5, Permeability 2nd
[25] = Caco-2, pH 6.5, Permeability Mean

## C[N+](C)(C)CCOP(=O)([O-])OP(=O)([O-])OC[C@H]1O[C@@H](n2ccc(NO)nc2=O)[C@H](O)[C@@H]1O.[Na+] [Example 1, 2-(((((((2R,3S,4R,5R)-3,4-Dihydroxy-5-(4-(hydroxyamino)-2-oxopyrimidin-1 (2H)-yl)tetrahydrofuran-2-yl)methoxy) (hydroxy)phosphoryl)oxy)oxidophosphoryl)oxy)-N,N,N-trimethylethan-1-aminium mono sodium salt]
[1]
  logD: 0.52
[2]; Conc. 0.0079 μM
  RSV Virus Titers: 4.5 CCID50/mL (Log10)
[2]; Conc. 0.025 μM
  RSV Virus Titers: 4.0 CCID50/mL (Log10)
[2]; Conc. 0.079 μM
  RSV Virus Titers: 3.5 CCID50/mL (Log10)
[2]; Conc. 0.25 μM
  RSV Virus Titers: 4.0 CCID50/mL (Log10)
[2]; Conc. 0.79 μM
  RSV Virus Titers: 4.0 CCID50/mL (Log10)
[2]; Conc. 2.5 μM
  RSV Virus Titers: 3.5 CCID50/mL (Log10)
[2]; Conc. 7.9 μM
  RSV Virus Titers: 3.5 CCID50/mL (Log10)
[2]; Conc. 25 μM
  RSV Virus Titers: 3.5 CCID50/mL (Log10)
[2]; [19]
  combination behavior on RSV: synergistic
[3]
  CC50: 2.4 µM
[4]; Conc. 0.0079 μM
  HRV-14 Virus Titers: 6.7 CCID50/mL (Log10)
[4]; Conc. 0.025 μM
  HRV-14 Virus Titers: 6.7 CCID50/mL (Log10)
[4]; Conc. 0.079 μM
  HRV-14 Virus Titers: 6.7 CCID50/mL (Log10)
[4]; Conc. 0.25 μM
  HRV-14 Virus Titers: 7.0 CCID50/mL (Log10)
[4]; Conc. 0.79 μM
  HRV-14 Virus Titers: 6.7 CCID50/mL (Log10)
[4]; Conc. 2.5 μM
  HRV-14 Virus Titers: 6.0 CCID50/mL (Log10)
[4]; Conc. 7.9 μM
  HRV-14 Virus Titers: 4.7 CCID50/mL (Log10)
[4]; Conc. 25 μM
  HRV-14 Virus Titers: 3.5 CCID50/mL (Log10)
[4]; [19]
  combination behavior on HRV-14: synergistic
[5]
  combinatorial antiviral effect: synergistic
[6]
  CC50: 25 µM
[7]
  biopharmaceutics classification: Class Il
[8]; [20]
  recovery at 10 µM: 121%
[8]; [21]
  recovery at 10 µM: 115%
[8]; [22]
  recovery at 10 µM: 118%
[8]; [23]
  Papp at 10 µM: 36.1 ×10⁻⁶ cm/s
[8]; [24]
  Papp at 10 µM: 30.7 ×10⁻⁶ cm/s
[8]; [25]
  Papp at 10 µM: 33.4 ×10⁻⁶ cm/s
[9]
  pEC50: 5.32
[10]
  pEC50: 5.96
[11]
  CC50: > 100 µM
[12]; Solubility 1st
  solubility: < 1 µM
[12]; Solubility 2nd
  solubility: < 1 µM
[12]; Solubility Mean
  solubility: < 1 µM
[13]
  pEC50: > 5.00
[14]; Solubility 1st
  solubility: 14.2 µM
[14]; Solubility 2nd
  solubility: 14.4 µM
[14]; Solubility Mean
  solubility: 14.3 µM
[15]; [20]
  recovery at 10 µM: 91%
[15]; [21]
  recovery at 10 µM: 83%
[15]; [22]
  recovery at 10 µM: 87%
[15]; [23]
  Papp at 10 µM: 26.1 ×10⁻⁶ cm/s
[15]; [24]
  Papp at 10 µM: 21.2 ×10⁻⁶ cm/s
[15]; [25]
  Papp at 10 µM: 23.7 ×10⁻⁶ cm/s
[16]
  CC50: > 25 µM
[17]
  pEC50: 5.33
[18]; Solubility 1st
  solubility: 13.9 µM
[18]; Solubility 2nd
  solubility: 18.3 µM
[18]; Solubility Mean
  solubility: 16.1 µM
